Measurements published in US5300491A, “Treatment of protozoal infection” (priority 1992, dated 1994).
In brackets after ≈: the same amount, converted by molar mass. Several values for one entry are separate records, joined by “and”; a condition that tells them apart may be missing. Identical values can stand only once. Like-named read-outs stand apart in the source and are kept apart here. Bridge positions count the residues as written; N and C are the ends. Square brackets hold non-standard residues; d marks the D form. Peptide text beside a SMILES is read from it. * marks the point of attachment. Ileψ(thiazoline)Cys = CC[C@H](C)[C@H](N)C1=N[C@H](C(=O)*)CS1; dOrn = NCCC[C@@H](N)C(=O)O

Key:
[1] = test system: Tritrichomonas foetus; experiment: Tritrichomonas foetus assay (MLC); assay type: cell-based
Method: Duplicate plates of each isolate were prepared. One set of plates was exposed to an aerobic environment; and, the second set was exposed to an anaerobic environment. An Oxoid HP 11 anaerobic gas chamber and BR 38 gas generating kit were used to produce the anaerobic environment. […]

[2] = test system: Trichomonas vaginalis; experiment: Trichomonas vaginalis assay of other divalent metal salts of bacitracin (MIC); assay type: cell-based
Method: (§1) All isolates were treated with either bacitracin or zinc bacitracin.
(§2) Prior to being diluted with the medium, the bacitracins were initially solubilized in water to 250 mg/ml. The zinc salt was solubilized in acidified water (60 μl HC1/ml). Duplicate plates of each isolate were prepared. one set of plates was exposed to an aerobic environment; and, the second set was exposed to an anaerobic environment. An Oxoid HP 11 anaerobic gas chamber and BR 38 gas generating kit were used to produce the anaerobic environment.
The procedure of Example IV was repeated, substituting bacitracin salts of the following metals for zinc bacitracin: nickel, cadmium, cobalt, manganese, copper and iron. The MLCs of the bacitracin salts were out of range. However, the MICs indicate that, with the exception of ferrous bacitracin, complexation with a divalent metal salt enhanced the activity of bacitracin.

[3] = test system: E. histolytica axenic cultures (NIH:200); experiment: Axenic culture study of E. histolytica (NIH:200), cell number reduction; assay type: cell-based, Entamoeba histolytica
Method: Axenic cultures are isolates of amoeba which have been adapted for growth in the absence of bacteria, i.e. they comprise sterile cultures. E. histolytica axenic cultures (NIH:200) were maintained according to the method of Diamond, J. Parasitol. 54, 1047-56 (1968) in TP-S-1 medium modified by replacing the vitamin solution with 2.5% NCTC 135. […] Amoebae were harvested by cooling tubes at 4° C. for 20 minutes in an ice-bath prior to centrifugation at 1,000 rpm for 8 minutes at 4° C. Assays were performed over 36-48 hours, rather than the 24 hour period used for xenic cultures, due to the more extended division time of axenic cultures. All assays were performed in triplicate.

[4] = test system: Trichomonas vaginalis; experiment: Trichomonas vaginalis assay (MLC, aerobic and anaerobic); assay type: cell-based; details: for MLCs: span over metronidazole-sensitive isolates, converted from IU/ml
Method: as §1, §2

[5] = test system: Giardia lamblia; assay type: cell-based
Method: A Portland isolate of G. lamblia was treated with bacitracin and zinc bacitracin according to the procedure of Example IV. An Oxoid HP 11 anaerobic gas chamber and BR 38 gas generating kit were used to produce an anaerobic environment. […] The parasites were incubated in the presence of the treating reagent for 2 4 hours. The viability of the parasites was based on morphology and motility.

[6] = test system: Micrococcus uteus; details: as obtained from Apothekernes Laboratorium A.S; cited from earlier work
[7] = test system: Tritrichomonas gallinae; experiment: Tritrichomonas gallinae assay (MLC); assay type: cell-based; details: isolate GH85
Method: A single T. gallinae isolate was collected and treated with bacitracin or zinc bacitracin in accordance with the procedure of Example IV. Duplicate plates of the isolate were prepared. one plate was exposed to an aerobic environment. The second plate was exposed to an anaerobic environment.

[8] = isolate 1031, metronidazole-sensitive, aerobic
[9] = isolate 1031, metronidazole-sensitive, anaerobic
[10] = isolate 1043, metronidazole-sensitive, aerobic
[11] = isolate 1043, metronidazole-sensitive, anaerobic
[12] = isolate 1044, metronidazole-sensitive, aerobic
[13] = isolate 1044, metronidazole-sensitive, anaerobic
[14] = isolate 1064, metronidazole-sensitive, aerobic
[15] = isolate 1064, metronidazole-sensitive, anaerobic
[16] = isolate 1065, metronidazole-sensitive, aerobic
[17] = isolate 1065, metronidazole-sensitive, anaerobic
[18] = isolate 1165, metronidazole-sensitive, aerobic
[19] = isolate 1165, metronidazole-sensitive, anaerobic
[20] = isolate 1910, metronidazole-sensitive, aerobic
[21] = isolate 1910, metronidazole-sensitive, anaerobic
[22] = isolate 6950, metronidazole-sensitive, aerobic
[23] = isolate 6950, metronidazole-sensitive, anaerobic
[24] = isolate 89532.2, metronidazole-insensitive, aerobic
[25] = isolate 89532.2, metronidazole-insensitive, anaerobic
[26] = isolate 90576, metronidazole-insensitive, aerobic
[27] = isolate 90576, metronidazole-insensitive, anaerobic
[28] = isolate CDC85, metronidazole-insensitive, aerobic
[29] = isolate CDC85, metronidazole-insensitive, anaerobic
[30] = isolate IR78, metronidazole-insensitive, aerobic
[31] = isolate IR78, metronidazole-insensitive, anaerobic
[32] = isolate PHLS289, metronidazole-insensitive, aerobic
[33] = isolate PHLS289, metronidazole-insensitive, anaerobic
[34] = isolate STH-1, metronidazole-insensitive, aerobic
[35] = isolate STH-1, metronidazole-insensitive, anaerobic
[36] = isolate UCH-1, metronidazole-sensitive, aerobic
[37] = isolate UCH-1, metronidazole-sensitive, anaerobic
[38] = isolate UCH-2, metronidazole-sensitive, aerobic
[39] = isolate UCH-2, metronidazole-sensitive, anaerobic
[40] = isolate UCH-M1, metronidazole-sensitive, aerobic
[41] = isolate UCH-M1, metronidazole-sensitive, anaerobic
[42] = isolate UOB-1, metronidazole-sensitive, aerobic
[43] = isolate UOB-1, metronidazole-sensitive, anaerobic
[44] = Portland isolate, anaerobic, 24 hours, two lines of values
[45] = span depending upon culture conditions
[46] = span depending upon culture conditions, converted from IU/ml

Compound: CC[C@H](C)[C@H](N)C1=N[C@H](C(=O)N[C@@H](CC(C)C)C(=O)N[C@H](CCC(=O)O)C(=O)N[C@H](C(=O)N[C@H]2CCCCNC(=O)[C@H](CC(N)=O)NC(=O)[C@@H](CC(=O)O)NC(=O)[C@H](Cc3cnc[nH]3)NC(=O)[C@@H](Cc3ccccc3)NC(=O)[C@H]([C@@H](C)CC)NC(=O)[C@@H](CCCN)NC2=O)[C@@H](C)CC)CS1 [Bacitracin, reference compound] ({Ileψ(thiazoline)Cys}-L[dE]IK[dOrn]I[dF]H[dD]N; lactam 4-C)
- MLC ([1]; isolate 121, aerobic): 28000 µg/mL (≈ 19.7 mM)
- MLC ([1]; isolate 121, anaerobic): 28000 µg/mL (≈ 19.7 mM)
- MLC ([1]; isolate 138, aerobic): 28000 µg/mL (≈ 19.7 mM)
- MLC ([1]; isolate 138, anaerobic): 28000 µg/mL (≈ 19.7 mM)
- MLC ([1]; isolate ATCC 30166, aerobic): 28000 µg/mL (≈ 19.7 mM)
- MLC ([1]; isolate ATCC 30166, anaerobic): 28000 µg/mL (≈ 19.7 mM)
- MLC ([1]; isolate FT.3741, aerobic): 28000 µg/mL (≈ 19.7 mM)
- MLC ([1]; isolate FT.3741, anaerobic): 28000 µg/mL (≈ 19.7 mM)
- MLC ([1]; isolate S10, aerobic): 28000 µg/mL (≈ 19.7 mM)
- MLC ([1]; isolate S10, anaerobic): 28000 µg/mL (≈ 19.7 mM)
- MLC ([1]; isolate TF.7, aerobic): 28000 µg/mL (≈ 19.7 mM)
- MLC ([1]; isolate TF.7, anaerobic): 28000 µg/mL (≈ 19.7 mM)
- MIC ([2]; T. vaginalis isolate 1910): 10000 µg/mL
- MIC ([2]; T. vaginalis isolate UCH1): 10000 µg/mL
- Cell number reduction compared to controls ([3]; axenic culture, 2.5 mg/ml): 76.4%
- Cell number reduction compared to controls ([3]; axenic culture, 5 mg/ml): 92.3%
- Cell number reduction compared to controls ([3]; axenic culture, 10 mg/ml): 97.7%
- Cell number reduction compared to controls ([3]; axenic culture, 15 mg/ml): 99.9%
- killing of amoeba ([3]; axenic culture, 20 mg/ml, 48 hours): All amoeba were killed
- MLC [4, 8]: 2000 IU/ml
- MLC [4, 9]: 2000 IU/ml
- MLC [4, 10]: 2500 IU/ml
- MLC [4, 11]: 2000 IU/ml
- MLC [4, 12]: 2000 IU/ml
- MLC [4, 13]: 2000 IU/ml
- MLC [4, 14]: 1500 IU/ml
- MLC [4, 15]: 1500 IU/ml
- MLC [4, 16]: 2000 IU/ml
- MLC [4, 17]: 2000 IU/ml
- MLC [4, 18]: 2000 IU/ml
- MLC [4, 19]: 2000 IU/ml
- MLC [4, 20]: 2000 IU/ml
- MLC [4, 21]: 2000 IU/ml
- MLC [4, 22]: 2000 IU/ml
- MLC [4, 23]: 2000 IU/ml
- MLC [4, 24]: 2000 IU/ml
- MLC [4, 25]: 2000 IU/ml
- MLC [4, 26]: 2500 IU/ml
- MLC [4, 27]: 2000 IU/ml
- MLC [4, 28]: 1500 IU/ml
- MLC [4, 29]: 2000 IU/ml
- MLC [4, 30]: 2000 IU/ml
- MLC [4, 31]: 2000 IU/ml
- MLC [4, 32]: 2000 IU/ml
- MLC [4, 33]: 2500 IU/ml
- MLC [4, 34]: 2000 IU/ml
- MLC [4, 35]: 2000 IU/ml
- MLC [4, 36]: 2000 IU/ml
- MLC [4, 37]: 2000 IU/ml
- MLC [4, 38]: 2500 IU/ml
- MLC [4, 39]: 2500 IU/ml
- MLC [4, 40]: 2000 IU/ml
- MLC [4, 41]: 2000 IU/ml
- MLC [4, 42]: 2000 IU/ml
- MLC [4, 43]: 2000 IU/ml
- MLCs [4]: 21.44-35.71 mg/mi
- MICs [5]: 28.6 to 35.7 mg/mL
- MLC (first of the two columns per drug) [5, 44]: 2500 IU/ml and 2000 IU/ml
- MLC (second of the two columns per drug) [5, 44]: > 3500 IU/ml
- Potency of the material used [6]: 70 I.U./mg
- MLC ([7]; aerobic): 2000 IU/ml
- MLC ([7]; anaerobic): 1500 IU/ml
- MLC [7, 45]: 1,500-2,000 IU/ml
- MLC [7, 46]: 21.43 to 28.57 mg/mL

Compound: Zinc bacitracin
- MLC ([1]; isolate 121, aerobic): 6000 µg/mL
- MLC ([1]; isolate 121, anaerobic): 6000 µg/mL
- MLC ([1]; isolate 138, aerobic): 6000 µg/mL
- MLC ([1]; isolate 138, anaerobic): 6000 µg/mL
- MLC ([1]; isolate ATCC 30166, aerobic): 6000 µg/mL
- MLC ([1]; isolate ATCC 30166, anaerobic): 6000 µg/mL
- MLC ([1]; isolate FT.3741, aerobic): 6000 µg/mL
- MLC ([1]; isolate FT.3741, anaerobic): 5000 µg/mL
- MLC ([1]; isolate S10, aerobic): 6000 µg/mL
- MLC ([1]; isolate S10, anaerobic): 6000 µg/mL
- MLC ([1]; isolate TF.7, aerobic): 6000 µg/mL
- MLC ([1]; isolate TF.7, anaerobic): 6000 µg/mL
- MIC ([2]; T. vaginalis isolate 1910): 2500 to 5000 µg/mL
- MIC ([2]; T. vaginalis isolate UCH1): 2500 µg/mL
- Cell number reduction compared to controls ([3]; axenic culture, 1 mg/ml): 68.3%
- Cell number reduction compared to controls ([3]; axenic culture, 2 mg/ml): 90.6%
- Cell number reduction compared to controls ([3]; axenic culture, 5 mg/ml): > 99.5%
- concentration required for lethality in axenic as opposed to xenic amoeba cultures ([3]; axenic versus xenic): 2-3 times
- MLC [4, 8]: 250 IU/ml
- MLC [4, 9]: 350 IU/ml
- MLC [4, 10]: 350 IU/ml
- MLC [4, 11]: 350 IU/ml
- MLC [4, 12]: 250 IU/ml
- MLC [4, 13]: 300 IU/ml
- MLC [4, 14]: 250 IU/ml
- MLC [4, 15]: 300 IU/ml
- MLC [4, 16]: 300 IU/ml
- MLC [4, 17]: 400 IU/ml
- MLC [4, 18]: 350 IU/ml
- MLC [4, 19]: 250 IU/ml
- MLC [4, 20]: 400 IU/ml
- MLC [4, 21]: 350 IU/ml
- MLC [4, 22]: 350 IU/ml
- MLC [4, 23]: 400 IU/ml
- MLC [4, 24]: 350 IU/ml
- MLC [4, 25]: 350 IU/ml
- MLC [4, 26]: 250 IU/ml
- MLC [4, 27]: 350 IU/ml
- MLC [4, 28]: 350 IU/ml
- MLC [4, 29]: 350 IU/ml
- MLC [4, 30]: 300 IU/ml
- MLC [4, 31]: 300 IU/ml
- MLC [4, 32]: 200 IU/ml
- MLC [4, 33]: 250 IU/ml
- MLC [4, 34]: 250 IU/ml
- MLC [4, 35]: 350 IU/ml
- MLC [4, 36]: 400 IU/ml
- MLC [4, 37]: 400 IU/ml
- MLC [4, 38]: 350 IU/ml
- MLC [4, 39]: 400 IU/ml
- MLC [4, 40]: 250 IU/ml
- MLC [4, 41]: 250 IU/ml
- MLC [4, 42]: 400 IU/ml
- MLC [4, 43]: 400 IU/ml
- MLCs [4]: 3.13 to 5.47 mg/mL
- MLC (second of the two columns per drug) [5, 44]: > 400 IU/ml and 300 IU/ml
- MICs ([5]; Portland isolate, converted from IU/ml): 2.3 to 6.3 mg/mL
- Potency of the material used [6]: 65 I.U./mg
- MLC ([7]; aerobic): 250 IU/ml
- MLC ([7]; anaerobic): 300 IU/ml
- MLC [7, 45]: 250-300 IU/ml
- MLC [7, 46]: 3.91 to 4.87 mg/mL
